In paper PMC10046369, “Low-Affinity/High-Selectivity Dopamine Transport Inhibition Sufficient to Rescue Cognitive Functions in the Aging Rat” (Biomolecules, 2023):

Columns and labels:
Test in all cases: biochemical
Design in all cases: KINOMEscan competition binding panel, per cent of control
Conditions in all cases: read-out: %Ctrl @ 2800nM
[1] = biological target: T1, ABL1(Q252H)-phosphorylated (Homo sapiens, UniProt P00519, Q252H)
T1 construct: phosphorylated
Summary of the method: (§1)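 Competition binding panel (KINOMEscan) across 450 human kinases and disease-relevant mutants, run to the contractor's standard protocol. Values are % control: (test signal − positive control signal)/(negative control signal − positive control signal) × 100, with lower values indicating stronger binding.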

EPHA2 = EPHA2 (Homo sapiens, UniProt P29317)
Summary of the method: as §1

BMPR1A = BMPR1A (Homo sapiens, UniProt P36894)
Summary of the method: as §1

RIPK1 = RIPK1 (Homo sapiens, UniProt Q13546)
Summary of the method: as §1

CDKL1 = CDKL1 (Homo sapiens, UniProt Q00532)
Chain of CDKL1 (Q00532 whole entry): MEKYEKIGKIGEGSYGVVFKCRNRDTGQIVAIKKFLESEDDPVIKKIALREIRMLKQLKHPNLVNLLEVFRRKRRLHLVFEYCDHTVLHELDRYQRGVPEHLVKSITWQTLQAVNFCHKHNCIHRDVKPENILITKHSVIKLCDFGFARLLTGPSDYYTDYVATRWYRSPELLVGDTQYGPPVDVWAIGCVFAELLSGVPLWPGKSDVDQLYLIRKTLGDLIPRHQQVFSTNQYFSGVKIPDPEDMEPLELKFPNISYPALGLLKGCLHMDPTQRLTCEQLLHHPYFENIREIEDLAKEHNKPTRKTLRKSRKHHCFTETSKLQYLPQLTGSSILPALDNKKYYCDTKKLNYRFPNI
Summary of the method: as §1

PIK3CA = PIK3CA (Homo sapiens, UniProt P42336)
Summary of the method: as §1

ERBB2 = ERBB2 (Homo sapiens, UniProt P04626)
Chain of ERBB2 (P04626 whole entry): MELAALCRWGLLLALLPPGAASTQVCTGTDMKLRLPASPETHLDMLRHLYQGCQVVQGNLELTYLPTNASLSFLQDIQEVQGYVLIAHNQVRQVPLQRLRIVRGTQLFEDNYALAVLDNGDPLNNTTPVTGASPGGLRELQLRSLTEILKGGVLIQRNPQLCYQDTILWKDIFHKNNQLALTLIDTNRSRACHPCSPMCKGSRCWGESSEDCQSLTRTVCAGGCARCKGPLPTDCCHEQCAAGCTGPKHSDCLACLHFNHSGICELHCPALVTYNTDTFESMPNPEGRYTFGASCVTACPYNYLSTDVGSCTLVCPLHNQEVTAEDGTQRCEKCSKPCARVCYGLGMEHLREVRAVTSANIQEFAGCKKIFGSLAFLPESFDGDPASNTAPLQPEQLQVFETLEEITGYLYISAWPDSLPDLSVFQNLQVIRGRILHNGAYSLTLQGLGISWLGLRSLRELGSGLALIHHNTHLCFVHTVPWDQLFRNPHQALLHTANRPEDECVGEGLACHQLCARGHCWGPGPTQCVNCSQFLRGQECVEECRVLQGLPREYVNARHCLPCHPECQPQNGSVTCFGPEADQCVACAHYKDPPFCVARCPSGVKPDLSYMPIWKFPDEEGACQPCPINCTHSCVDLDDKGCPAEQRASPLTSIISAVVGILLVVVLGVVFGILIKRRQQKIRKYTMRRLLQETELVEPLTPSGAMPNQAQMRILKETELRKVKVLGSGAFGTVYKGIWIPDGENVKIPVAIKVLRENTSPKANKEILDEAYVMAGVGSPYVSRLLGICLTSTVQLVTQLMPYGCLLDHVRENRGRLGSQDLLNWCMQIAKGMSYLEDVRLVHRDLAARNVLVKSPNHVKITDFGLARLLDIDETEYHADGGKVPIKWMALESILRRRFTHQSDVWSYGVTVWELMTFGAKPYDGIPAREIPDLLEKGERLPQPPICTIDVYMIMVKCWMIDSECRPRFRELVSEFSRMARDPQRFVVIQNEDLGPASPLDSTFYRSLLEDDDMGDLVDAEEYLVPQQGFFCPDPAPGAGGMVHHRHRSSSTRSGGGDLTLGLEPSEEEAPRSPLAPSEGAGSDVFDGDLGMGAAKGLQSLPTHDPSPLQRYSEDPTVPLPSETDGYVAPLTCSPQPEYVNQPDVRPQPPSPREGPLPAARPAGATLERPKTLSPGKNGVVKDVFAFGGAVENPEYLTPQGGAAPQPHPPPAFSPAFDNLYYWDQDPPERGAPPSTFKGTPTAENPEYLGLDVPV
Summary of the method: as §1

CSNK1G1 = CSNK1G1 (Homo sapiens, UniProt Q9HCP0)
Chain of CSNK1G1 (Q9HCP0 whole entry): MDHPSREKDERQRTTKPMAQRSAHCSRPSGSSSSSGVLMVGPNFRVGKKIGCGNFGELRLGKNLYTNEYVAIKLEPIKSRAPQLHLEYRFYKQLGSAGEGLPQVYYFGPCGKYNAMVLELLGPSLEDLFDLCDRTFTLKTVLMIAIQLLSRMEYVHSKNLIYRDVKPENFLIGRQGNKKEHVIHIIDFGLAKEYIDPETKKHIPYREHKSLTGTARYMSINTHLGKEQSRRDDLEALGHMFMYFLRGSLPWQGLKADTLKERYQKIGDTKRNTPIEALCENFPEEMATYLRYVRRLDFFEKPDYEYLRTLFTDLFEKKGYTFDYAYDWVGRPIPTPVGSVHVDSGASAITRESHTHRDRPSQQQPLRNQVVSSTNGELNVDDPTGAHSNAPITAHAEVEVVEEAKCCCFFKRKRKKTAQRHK
Summary of the method: as §1

CDKL2 = CDKL2 (Homo sapiens, UniProt Q92772)
Summary of the method: as §1

AXL = AXL (Homo sapiens, UniProt P30530)
Summary of the method: as §1

CDK7 = CDK7 (Homo sapiens, UniProt P50613)
Summary of the method: as §1

PIK3CA(Q546K) = PIK3CA(Q546K) (Homo sapiens, UniProt P42336, Q546K)
Summary of the method: as §1

MRCKA = biological target: T2, MRCKA (Homo sapiens, UniProt Q5VT25)
T2 construct: gene CDC42BPA
Summary of the method: as §1

PLK2 = PLK2 (Homo sapiens, UniProt Q9NYY3)
Summary of the method: as §1

FLT4 = FLT4 (Homo sapiens, UniProt P35916)
Summary of the method: as §1

MLCK = biological target: T3, MLCK (Homo sapiens, UniProt Q32MK0)
T3 construct: gene MYLK3
Summary of the method: as §1

ERBB4 = ERBB4 (Homo sapiens, UniProt Q15303)
Chain of ERBB4 (Q15303 whole entry): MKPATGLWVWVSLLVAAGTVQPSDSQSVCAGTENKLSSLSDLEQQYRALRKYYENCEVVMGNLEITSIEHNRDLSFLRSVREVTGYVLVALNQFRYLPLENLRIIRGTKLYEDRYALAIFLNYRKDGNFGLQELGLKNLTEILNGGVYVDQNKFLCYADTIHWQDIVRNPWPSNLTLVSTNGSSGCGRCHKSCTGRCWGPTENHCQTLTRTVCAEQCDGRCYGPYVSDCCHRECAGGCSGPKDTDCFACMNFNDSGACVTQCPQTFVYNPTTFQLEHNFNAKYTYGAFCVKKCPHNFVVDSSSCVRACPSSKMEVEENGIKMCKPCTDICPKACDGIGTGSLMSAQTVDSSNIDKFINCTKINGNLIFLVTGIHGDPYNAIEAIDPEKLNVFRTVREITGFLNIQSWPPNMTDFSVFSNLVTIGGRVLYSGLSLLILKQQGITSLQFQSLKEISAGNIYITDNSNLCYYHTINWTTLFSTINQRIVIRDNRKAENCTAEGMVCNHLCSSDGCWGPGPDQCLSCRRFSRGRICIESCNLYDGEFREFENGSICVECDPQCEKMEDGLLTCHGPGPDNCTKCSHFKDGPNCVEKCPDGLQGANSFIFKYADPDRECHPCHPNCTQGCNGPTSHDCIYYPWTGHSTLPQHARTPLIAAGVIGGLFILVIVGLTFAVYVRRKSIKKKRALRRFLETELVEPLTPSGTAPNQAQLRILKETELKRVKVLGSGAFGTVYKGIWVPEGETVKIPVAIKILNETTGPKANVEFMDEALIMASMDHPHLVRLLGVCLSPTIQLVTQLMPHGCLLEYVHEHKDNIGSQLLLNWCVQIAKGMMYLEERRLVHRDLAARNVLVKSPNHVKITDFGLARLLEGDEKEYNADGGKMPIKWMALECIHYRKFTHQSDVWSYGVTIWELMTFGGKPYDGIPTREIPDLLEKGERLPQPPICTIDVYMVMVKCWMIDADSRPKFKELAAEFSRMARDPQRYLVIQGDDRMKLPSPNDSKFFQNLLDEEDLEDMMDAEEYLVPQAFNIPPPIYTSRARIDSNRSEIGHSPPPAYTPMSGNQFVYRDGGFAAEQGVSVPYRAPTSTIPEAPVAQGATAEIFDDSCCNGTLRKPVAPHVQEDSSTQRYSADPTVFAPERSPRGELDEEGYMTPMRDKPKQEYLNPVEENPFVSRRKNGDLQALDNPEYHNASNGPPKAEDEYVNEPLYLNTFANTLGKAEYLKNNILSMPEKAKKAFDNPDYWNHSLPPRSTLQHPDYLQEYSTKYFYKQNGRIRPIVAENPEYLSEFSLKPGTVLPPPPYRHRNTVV
Summary of the method: as §1

[2] = biological target: T4, ABL1(Y253F)-phosphorylated (Homo sapiens, UniProt P00519, Y253F)
T4 construct: phosphorylated
Summary of the method: as §1

IKK-alpha = biological target: T5, IKK-alpha (Homo sapiens, UniProt O15111)
T5 construct: gene CHUK
Summary of the method: as §1

KIT(D816H) = KIT(D816H) (Homo sapiens, UniProt P10721, D816H)
Summary of the method: as §1

CDKL3 = CDKL3 (Homo sapiens, UniProt Q8IVW4)
Chain of CDKL3 (Q8IVW4 whole entry): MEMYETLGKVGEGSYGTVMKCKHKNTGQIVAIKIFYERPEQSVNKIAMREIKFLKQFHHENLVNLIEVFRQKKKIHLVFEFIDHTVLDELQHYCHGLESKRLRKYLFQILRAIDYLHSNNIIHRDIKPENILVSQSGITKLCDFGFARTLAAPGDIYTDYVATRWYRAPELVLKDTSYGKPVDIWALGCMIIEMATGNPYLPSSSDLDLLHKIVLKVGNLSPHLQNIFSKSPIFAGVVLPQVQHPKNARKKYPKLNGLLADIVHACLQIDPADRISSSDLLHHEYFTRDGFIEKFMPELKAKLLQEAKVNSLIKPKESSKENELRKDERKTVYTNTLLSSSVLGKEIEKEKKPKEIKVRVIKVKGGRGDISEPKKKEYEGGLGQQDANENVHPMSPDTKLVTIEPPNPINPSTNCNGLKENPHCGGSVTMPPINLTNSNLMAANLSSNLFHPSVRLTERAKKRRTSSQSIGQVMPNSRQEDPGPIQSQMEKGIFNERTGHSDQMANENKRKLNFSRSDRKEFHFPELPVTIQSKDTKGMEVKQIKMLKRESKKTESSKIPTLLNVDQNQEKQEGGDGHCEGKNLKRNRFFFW
Summary of the method: as §1

EPHA3 = EPHA3 (Homo sapiens, UniProt P29320)
Chain of EPHA3 (P29320 whole entry): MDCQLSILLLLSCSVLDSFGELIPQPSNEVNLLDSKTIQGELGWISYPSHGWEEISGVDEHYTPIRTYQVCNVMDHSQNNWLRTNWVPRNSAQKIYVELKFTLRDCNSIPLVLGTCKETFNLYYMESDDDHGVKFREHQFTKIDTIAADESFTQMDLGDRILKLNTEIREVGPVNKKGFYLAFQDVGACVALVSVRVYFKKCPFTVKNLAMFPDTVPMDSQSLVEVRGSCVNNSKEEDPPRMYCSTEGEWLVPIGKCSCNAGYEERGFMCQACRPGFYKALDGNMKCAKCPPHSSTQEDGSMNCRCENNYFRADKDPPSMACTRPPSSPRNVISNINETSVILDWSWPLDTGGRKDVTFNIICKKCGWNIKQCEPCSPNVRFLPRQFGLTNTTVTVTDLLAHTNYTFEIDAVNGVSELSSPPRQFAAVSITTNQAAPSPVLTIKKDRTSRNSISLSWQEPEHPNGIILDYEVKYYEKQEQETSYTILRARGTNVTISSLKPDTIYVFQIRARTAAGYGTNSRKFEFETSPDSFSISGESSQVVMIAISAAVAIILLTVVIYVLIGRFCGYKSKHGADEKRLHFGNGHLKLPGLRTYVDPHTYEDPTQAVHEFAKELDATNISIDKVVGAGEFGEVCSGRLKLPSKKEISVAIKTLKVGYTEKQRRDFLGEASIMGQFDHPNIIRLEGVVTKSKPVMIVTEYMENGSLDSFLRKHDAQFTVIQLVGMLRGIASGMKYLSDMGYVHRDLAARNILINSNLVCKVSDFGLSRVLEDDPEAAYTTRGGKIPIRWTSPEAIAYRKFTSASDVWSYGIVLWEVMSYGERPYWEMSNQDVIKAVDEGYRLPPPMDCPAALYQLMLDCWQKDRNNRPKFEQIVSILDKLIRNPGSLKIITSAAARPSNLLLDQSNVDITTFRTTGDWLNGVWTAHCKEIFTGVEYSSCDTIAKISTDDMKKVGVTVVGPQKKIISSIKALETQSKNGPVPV
Summary of the method: as §1

[3] = biological target: T6, RPS6KA5(Kin.Dom.1-N-terminal) (Homo sapiens, UniProt O75582)
T6 construct: Kin.Dom.1-N-terminal
Summary of the method: as §1

MAP3K15 = MAP3K15 (Homo sapiens, UniProt Q6ZN16)
Summary of the method: as §1

PIK3C2B = PIK3C2B (Homo sapiens, UniProt O00750)
Summary of the method: as §1

[4] = biological target: T7, ABL1(F317L)-phosphorylated (Homo sapiens, UniProt P00519, F317L)
T7 construct: phosphorylated
Summary of the method: as §1

[O-][S@@+](Cc1cncs1)C(c1ccccc1)c1ccccc1 [S-CE-123, (S)-5-((Benzhydrylsulfinyl)Methyl)Thiazole]
remaining binding at 2.8 µM [1]: 84% | remaining binding at 2.8 µM (EPHA2): 73% | remaining binding at 2.8 µM (BMPR1A): 100% | remaining binding at 2.8 µM (RIPK1): 80% | remaining binding at 2.8 µM (CDKL1): 100% | remaining binding at 2.8 µM (PIK3CA): 80% | remaining binding at 2.8 µM (ERBB2): 100% | remaining binding at 2.8 µM (CSNK1G1): 96% | remaining binding at 2.8 µM (CDKL2): 89% | remaining binding at 2.8 µM (AXL): 96% | remaining binding at 2.8 µM (CDK7): 70% | remaining binding at 2.8 µM (PIK3CA(Q546K)): 97% | remaining binding at 2.8 µM (MRCKA): 95% | remaining binding at 2.8 µM (PLK2): 89% | remaining binding at 2.8 µM (FLT4): 100% | remaining binding at 2.8 µM (MLCK): 96% | remaining binding at 2.8 µM (ERBB4): 96% | remaining binding at 2.8 µM [2]: 93% | remaining binding at 2.8 µM (IKK-alpha): 100% | remaining binding at 2.8 µM (KIT(D816H)): 100% | remaining binding at 2.8 µM (CDKL3): 81% | remaining binding at 2.8 µM (EPHA3): 97% | remaining binding at 2.8 µM [3]: 100% | remaining binding at 2.8 µM (MAP3K15): 84% | remaining binding at 2.8 µM (PIK3C2B): 98% | remaining binding at 2.8 µM [4]: 100%
